15 molecules from patent US8138219B2, “Tryptamine sulfonamides as 5-HT6 antagonists” (Merck Sharp & Dohme Corp., priority 2007, dated 2012) can be followed below.

Each structure is given as a SMILES string. pIC50: −log10 of the molar value. Where two headings read alike, the source gives them in different places.

The target in one test is T1, Human 5-HT6 (Homo sapiens, UniProt P50406).
T1 construct: expressed in transfected cells
Put plainly: 5-HT6 receptor binding assay ([3H]5-HT displacement, SPA), human receptor. How it is done:
(§1) 5-HT6 Receptor Binding Assay
(§2) Affinity (IC50) of a compound for cloned human, rat, or mouse 5-HT6 receptor was measured by its ability to displace [^3H]5-HT using cell membranes prepared from cultured cells and scintillation proximity assay (SPA) beads that bind to cell membranes (Catalog No. RPNQ0001; GE Healthcare Life Sciences, Piscataway, N.J.). Assays were carried out in 200 μl binding buffer (50 mM Tris-HCl, pH 7.4, 5 mM MgCl2, 0.5 mM EDTA, 10 μM pargyline and 0.1% ascorbic acid) in 96-well plates. Cell membranes were re-suspended in binding buffer to final concentration of up to 0.2 mg protein/ml and mixed with reconstituted SPA beads to a final concentration of 0.25 mg/ml. To each well, […] of above mixture, 50 of cold compound (to 10^−10 to 10^−5 M final concentration) and 50 μl of [^3H]5-HT radioligand (specific activity, 100 Ci/mmol, GE Healthcare Life Sciences; final concentration, 5 nM) were added. Following 1 h incubation at room temperature, the radioactivity bound to the cell membranes was measured on a scintillation counter.

The next test deals with T2, Mouse 5-HT6 (Mus musculus, UniProt Q9R1C8).
T2 construct: expressed in transfected cells
T2 sequence (Q9R1C8 whole entry): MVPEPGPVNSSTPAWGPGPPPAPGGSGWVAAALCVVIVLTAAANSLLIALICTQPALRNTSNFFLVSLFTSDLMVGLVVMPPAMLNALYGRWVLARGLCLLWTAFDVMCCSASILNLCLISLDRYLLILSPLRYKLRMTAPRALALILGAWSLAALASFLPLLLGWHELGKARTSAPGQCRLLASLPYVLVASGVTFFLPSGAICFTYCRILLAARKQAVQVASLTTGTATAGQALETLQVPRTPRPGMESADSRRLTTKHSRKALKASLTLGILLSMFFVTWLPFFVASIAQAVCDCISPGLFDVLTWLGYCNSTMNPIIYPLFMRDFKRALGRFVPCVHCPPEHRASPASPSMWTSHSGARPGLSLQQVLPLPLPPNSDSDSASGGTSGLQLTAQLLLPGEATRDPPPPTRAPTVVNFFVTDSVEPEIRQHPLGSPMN
In words: 5-HT6 receptor binding assay ([3H]5-HT displacement, SPA), mouse receptor. How it is done: as §1, §2

Test [1] deals with 5-HT6 receptor expressed in CHO cells. In words: 5-HT6 receptor functional activity assay (cellular cAMP levels, CHO cells). The test is classed as cell-based, human, rat, or mouse. As to conditions: concentration up to 10 micromolar; cAMP accumulation; species not specified. How it is done:
5-HT6 Receptor Functional Activity Assay.
The functional activation of human, rat, or mouse 5-HT6 receptor expressed in CHO cells was determined by measuring cellular cAMP levels following the exposure of the cells to a compound using the SPA cAMP Screening System (Catalog No. RPA556, GE Healthcare) in 96-well OptiPlates (Catalog No. 6005190, PerkinElmer, Boston, Mass.). Cells expressing recombinant receptors were harvested and then re-suspended at approximately 2.0×10^6 cells/ml in assay medium containing Earle's Balanced Salt Solution (EBSS, pH 7.4) supplemented with 25 mM Hepes, 5 mM MgCl2 and 0.05% BSA. Cells (50 μl, ˜10^5 cells) were transferred to wells, to give a final volume of 100 μl containing various concentrations of compounds. The plate was incubated at 37° C. for 30 min and the reaction was terminated by boiling for 3 min. The accumulation of cAMP in 15 μl lysate was measured according to manufacture's instructions.
For orientation: cAMP levels reflect the balance of adenylyl cyclase and phosphodiesterase activity.

Where [2] appears, read: cloned human 5-HT6 receptor, cell membranes, [3H]5-HT 5 nM, read-out: Human 5-HT6 binding IC50.
[3] abbreviates: cloned mouse 5-HT6 receptor, cell membranes, [3H]5-HT 5 nM, read-out: Mouse 5-HT6 binding IC50.

T1 sequence (P50406 whole entry): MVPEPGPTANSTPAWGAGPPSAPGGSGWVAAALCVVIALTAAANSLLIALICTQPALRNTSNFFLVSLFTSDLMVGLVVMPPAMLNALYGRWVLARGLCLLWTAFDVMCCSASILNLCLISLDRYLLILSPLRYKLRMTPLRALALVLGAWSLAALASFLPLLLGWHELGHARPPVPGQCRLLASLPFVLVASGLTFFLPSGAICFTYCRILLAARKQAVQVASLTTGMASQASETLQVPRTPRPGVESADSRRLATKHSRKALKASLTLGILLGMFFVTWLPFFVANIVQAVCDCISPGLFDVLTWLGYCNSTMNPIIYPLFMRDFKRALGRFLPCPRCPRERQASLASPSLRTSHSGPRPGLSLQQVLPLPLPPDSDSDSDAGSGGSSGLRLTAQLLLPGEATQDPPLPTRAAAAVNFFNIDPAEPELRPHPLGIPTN

Turning to `CC(C)S(=O)(=O)n1cc(CCNCc2cccc(OCC(F)(F)C(F)F)c2)c2ccc(F)cc21` [Example 14], the results for the pIC50 on Human 5-HT6 (setting [2]) and at Mouse 5-HT6 (setting [3]) were 7.70 and 7.24, respectively.

As for `O=S(=O)(c1ccc(Cl)cc1)n1cc(CCNCc2cccc(OCC(F)(F)C(F)F)c2)c2ccc(F)cc21` [Example 7], the results for the negative logarithm of the IC50 (pIC50) on Human 5-HT6 (setting [2]) and on Mouse 5-HT6 (setting [3]) were 8.47 and 8.14, respectively.

Regarding `O=S(=O)(c1cccc(C(F)(F)F)c1)n1cc(CCNCc2cccc(OCC(F)(F)C(F)F)c2)c2ccc(F)cc21` [Example 10], the negative logarithm of the IC50 (pIC50) (as a rule, the IC50 on a negative log10 scale, so that one unit is a factor of ten) was 9.20 at Human 5-HT6 (setting [2]) and 7.22 on Mouse 5-HT6 (setting [3]).

For `CCS(=O)(=O)n1cc(CCNCc2cccc(OCC(F)(F)C(F)F)c2)c2ccc(F)cc21` [Example 13], the pIC50 at Human 5-HT6 was 8.58; on Mouse 5-HT6, 7.93.

`O=S(=O)(c1cc(Cl)cc(Cl)c1)n1cc(CCNCc2cccc(OCC(F)(F)C(F)F)c2)c2ccc(F)cc21` [Example 5]: the values for the pIC50 at Human 5-HT6 (setting [2]) and on Mouse 5-HT6 (setting [3]) were 8.54 and 6.83, respectively.

On to `COc1cccc(S(=O)(=O)n2cc(CCNCc3cccc(OCC(F)(F)C(F)F)c3)c3ccc(F)cc32)c1` [Example 3], for which the pIC50 is 9.23 on Human 5-HT6 (setting [2]) and 6.77 on Mouse 5-HT6 (setting [3]).

With `O=S(=O)(c1ccc(Br)cc1)n1cc(CCNCc2cccc(OCC(F)(F)C(F)F)c2)c2ccc(F)cc21` [Example 8], the pIC50 on Human 5-HT6 (setting [2]) is 8.69; at Mouse 5-HT6 (setting [3]) it was 7.81.

In the case of `O=S(=O)(c1cccc(Cl)c1)n1cc(CCNCc2cccc(OCC(F)(F)C(F)F)c2)c2ccc(F)cc21` [Example 4], the pIC50 on Human 5-HT6 (setting [2]) is 9.09; at Mouse 5-HT6 (setting [3]) it was 7.22.

For the molecule `O=S(=O)(c1ccc(OC(F)(F)F)cc1)n1cc(CCNCc2cccc(OCC(F)(F)C(F)F)c2)c2ccc(F)cc21` [Example 2], the pIC50 at Human 5-HT6 is 7.33; at Mouse 5-HT6 it was 6.68.

In the case of `O=S(=O)(c1cccc(F)c1)n1cc(CCNCc2cccc(OCC(F)(F)C(F)F)c2)c2ccc(F)cc21` [Example 11], the pIC50 on Human 5-HT6 (setting [2]) was 9.43; at Mouse 5-HT6 (setting [3]), 7.75.

Take `CS(=O)(=O)n1cc(CCNCc2cccc(OCC(F)(F)C(F)F)c2)c2ccc(F)cc21` [Example 12]: the pIC50 on Human 5-HT6 was 8.79; on Mouse 5-HT6 it was 8.02.

For the molecule `O=S(=O)(c1ccc(F)cc1)n1cc(CCNCc2cccc(OCC(F)(F)C(F)F)c2)c2ccc(F)cc21` [Example 6], the pIC50 was 8.54 at Human 5-HT6 and 7.67 at Mouse 5-HT6.

For the molecule `O=S(=O)(c1ccc(F)c(Cl)c1)n1cc(CCNCc2cccc(OCC(F)(F)C(F)F)c2)c2ccc(F)cc21` [Example 9], the negative-log IC50 (pIC50) is 8.05 at Human 5-HT6 (setting [2]) and 6.90 on Mouse 5-HT6 (setting [3]).

As for `Cl.O=S(=O)(c1ccccc1)n1cc(CCNCc2cccc(OCC(F)(F)C(F)F)c2)c2ccc(F)cc21` [Example 1], the “functional activation of 5-HT6 receptor (detectable activity)” value in test [1] is listed as “did not show detectable activity”. For the same molecule, the negative logarithm of the IC50 (pIC50) was 9.70 on Human 5-HT6 (setting [2]) and 8.70 at Mouse 5-HT6 (setting [3]).

For `COc1ccc(S(=O)(=O)n2cc(CCNCc3cccc(OCC(F)(F)C(F)F)c3)c3ccc(F)cc32)cc1` [Example 15], the pIC50 at Human 5-HT6 (setting [2]) was 7.99; at Mouse 5-HT6 (setting [3]) it was 6.73.
